Laboratory results reported in US5200343A, “Method for microbial dehalogenation of haloaliphatic compounds using a sulfate reducing bacteria, desulfomonile tiedjei” (Board of Trustees operating Michigan State University, priority 1991, dated 1993).
Where two headings read alike, the source gives them in different places.

Tests used:
[1] = test system: 3-Chlorobenzoate Dechlorination Activity; assay: Induction of 3-chlorobenzoate dechlorination activity by growth with 3-chlorobenzoate, analogues, or chloro- and iodobenzoates (Tables 4, 5); assay type: cell-based, Desulfomonile tiedjei
Procedure: Table 4. Cultures were grown in the presence of 3-chlorobenzoate or a 3-chlorobenzoate analogue substituted at the 1- or 3- position with the indicated functional groups. After several generations the culture were concentrated, washed and resuspended in anaerobic buffered salts containing 1 mM 3-chlorobenzoate and 10 mM pyruvate (as electron donor). […] After two hours samples were taken for benzoate analysis by HPLC. Values presented are the average of duplicate or triplicate cultures ± sample standard deviation.
Table 5. Chloro- and iodobenzoates were tested as inducers of 3-chlorobenzoate dehalogenation activity as described in the legend to Table 4. All compounds were initially at 500 μM; the 3-halo compounds were amended during growth as they were dehalogenated. Values presented are the average of duplicate or triplicate cultures± sample standard deviation.

[2] = test system: Dechlorination of 3-Chlorobenzoate; assay: Dechlorination of 3-chlorobenzoate in the presence of various analogues by induced cells (Table 6); assay type: cell-based; details: Desulfomonile tiedjei, read-out: dechlorination of 3-chlorobenzoate in the presence of analogue, % of Control
Procedure: […]. 3-fluorobenzoate induced cultures were washed and resuspended essentially as described in the legend to […] with 100 μM 3-chlorobenzoate and the indicated analogues at 500 μM. Dechlorination rates were normalized to the rate in assays with no analogue to obtain the values presented.

dechlorination of 3CB = details: cited from earlier work
[3] = test system: Desulfomonile tiedjei cells; assay: PCE and TCE dechlorination by resuspended cells induced with 3-fluorobenzoate versus non-induced cells (Table 1, FIG. 1); assay type: cell-based; details: for Mole % recovered, TCE / Mole % recovered, cis-DCE / Total Cl Removed: 2 μg/ml substrate, 37° C., 2 hr; for Mole % recovered, TCE / Mole % recovered, cis-DCE: average of duplicate vials; for Total Cl Removed: calculated from input concentration and Mole % recovered
Procedure: (§1) Cultures were grown using strict anaerobic technique in a synthetic minimal medium amended with vitamins (DeWeerd, et al, Arch. of Microbiol. 154, 23-30 (1990)), pyruvate at 20 mM, and reduced with 1 mM cysteine and 0.1 mM Na2 S2 O4. The concentration of nicotinamide and 1,4-naphthoquinone were 500 μgl^-1 and 200 μgl^-1, respectively. Thiamine, hemin and lipoic acid were used at 50 μg/liter. To induce 3-chlorobenzoate dechlorination activity, 3-fluorobenzoate was added to 0.1 mM. The complete medium was inoculated with a 1% transfer from homologous medium (without fluorobenzoate). Cultures were grown at 37° C. in the dark for about 14 days for fresh cells or 28 days for starved stationary phase cells.
(§2) Cultures were harvested by centrifugation and resuspended in 20 to 40% of the initial volume in a cold anaerobic assay buffer normally consisting of 50 mM NaCl, 10 mM sodium pyruvate, 10 mM HEPES (N-2[hydroxyethylP]piperazine-N'-[2-ethanesulfonic acid], hemisodium salt Sigma);, 0.00001% resazurin and reduced with 1 mM cysteine-HCl and 1 mM titanium (III) citrate. Resuspended cells were used to completely fill N2 sparged 10 ml serum bottles after which chlorinated ethylenes were added from a 0.5 or 1 mg/ml stock in methanol for PCE and TCE respectively. The vials were immediately sealed with Teflon lined rubber septa and aluminum crimp seals, leaving no headspace. The assays were commenced by transferring the serum bottles to a 37° C. water bath. The assays were terminated at the indicated times by transferring the serum bottles to an ice water bath, where they were stored until analyzed. Protein concentrations were determined by a modification of the Lowry method (Hanson, R. S. and J. A. Phillips, In P. Gerhardt (ed.) Manual of methods for general microbiology. American Society for Microbiology, Washington, D. C. p. 328-364 (1981)).
(§3) Chlorinated ethylenes were monitored with a Tekmar purge and trap unit (model 4000) connected to a Hewlett-Packard GC (Sunnyville, Calif.) equipped with an HP-5 cappillary column (30 m×0.53 mm×2.6 μm film thickness) and flame ionization detector. Samples (5 ml) were purged onto Tenax TA (Supelco, Bellefonte, Pa.) adsorbent with helium (30 ml/min for 16 min.), desorbed (180° C. for 4 min.), and separated using helium as a carrier at 6 ml/min. The temperature program was 30° C. for 8 min, increasing to 200° C. at 4° C./min and followed by an isothermal period of 5 min. The injection and detector temperatures were 220° C. and 300° C., respectively. PCE and its dechlorinated products were identified by comparison with authentic standards.
To further examine the transformation of both PCE and TCE and to determine if dechlorination of TCE also requires induction, a similar experiment was conducted to measure the initial transformation rates of PCE and TCE (Table 1.). […] The extent of transformation of PCE to TCE ([…] in 2H) was considerably faster than the rate of transformation of TCE to DCE ([…] in 2h), as expected from the redox potentials of these reactions (Vogel, T. M., et al., Environ. Sci. Technol. 21:722-736 (1987)) and results from mixed culture systems (Bouwer, E. J., and P. L. McCarty, Appl. Environ. Microbiol. 45:1286-1294 (1983)). The rate of transformation of PCE and TCE were much greater for the induced cultures than for the non-induced cultures.
^a suspensions were amended with PCE or TCE to a final concentration
of 2 μg/ml and incubated at 37° C. for 2 hr. Suspensions of
induced and uninduced cells contained 149 and 153 μg protein per ml
^b Data are presented as the average of duplicate vials with the
sample standard deviation in parenthesis.
^c Calculated from the input concentration of chlorinated ethylenes
and the Mole % of recovered material.

[4] = test system: Desulfomonile tiedjei cells; assay: Effect of different medium reductants and sterilant on PCE dechlorination by induced cells (Table 2); assay type: cell-based; details: formaldehyde, final concentration 0.2%
Procedure: as §1, with “The” for “Cultures were grown using strict anaerobic technique in a synthetic minimal medium amended with vitamins (DeWeerd, et al, Arch. of Microbiol. 154, 23-30 (1990)), pyruvate at 20 mM, and reduced with 1 mM cysteine and 0.1 mM Na2 S2 O4. The”
as §2, with “analyzed.” for “analyzed. Protein concentrations were determined by a modification of the Lowry method (Hanson, R. S. and J. A. Phillips, In P. Gerhardt (ed.) Manual of methods for general microbiology. American Society for Microbiology, Washington, D. C. p. 328-364 (1981)).”
as §3
Data are the average of duplicate vials and […]

[5] = Table 5, inducers initially 500 μM, 3-halo compounds amended during growth
[6] = Table 4, inducers at 500 μM except 3-formylbenzoate 100 μM and 3-chlorobenzoate (amended at intervals), assay 1 mM 3-chlorobenzoate, two hours
[7] = 100 μM 3-chlorobenzoate, analogue 500 μM, normalized to rate with no analogue
[8] = growing cells and resuspended cells

O=C(O)c1ccccc1Cl [2-chloro-]
Induction Activity (3-chlorobenzoate dechlorination activity) [1, 5]: 0 ± 0 nMol/hr/mg protein

O=C(O)c1ccccc1I [2-iodobenzoate]
Induction Activity (3-chlorobenzoate dechlorination activity) [1, 5]: 13 ± 9 nMol/hr/mg protein

O=C(O)c1cccc(F)c1 [3-fluorobenzoate]
Induction Activity (3-chlorobenzoate dechlorination activity) [1, 6]: 570 ± 37 nMol/hr/mg protein | activity at 500 µM [2, 7]: 114%

O=Cc1cccc(C(=O)O)c1 [3-formylbenzoate]
Induction Activity (3-chlorobenzoate dechlorination activity) [1, 6]: 8 ± 1 nMol/hr/mg protein

O=C(O)c1cccc(I)c1 [3-iodo-, m-iodobenzoate]
Induction Activity (3-chlorobenzoate dechlorination activity) [1, 5]: 582 ± 59 nMol/hr/mg protein

Cc1cccc(C(=O)O)c1 [3-methyl-benzoate]
Induction Activity (3-chlorobenzoate dechlorination activity) [1, 6]: 409 ± 6 nMol/hr/mg protein | activity at 500 µM [2, 7]: 119%

O=C(O)c1ccc(I)cc1 [4-iodobenzoate]
Induction Activity (3-chlorobenzoate dechlorination activity) [1, 5]: 7 ± 10 nMol/hr/mg protein

OCc1cccc(Cl)c1 [--CH2 OH --Cl, 3-chlorobenzyl alcohol]
Induction Activity (3-chlorobenzoate dechlorination activity) [1, 6]: 86 ± 5 nMol/hr/mg protein | activity at 500 µM [2, 7]: 108%

O=C(O)c1cccc(C(F)(F)F)c1 [--COOH --CF3, m-trifluoromethyl benzoate]
Induction Activity (3-chlorobenzoate dechlorination activity) [1, 6]: 383 ± 6 nMol/hr/mg protein | activity at 500 µM [2, 7]: 94%

N#Cc1cccc(C(=O)O)c1 [--COOH --CN]
Induction Activity (3-chlorobenzoate dechlorination activity) [1, 6]: 7 ± 1 nMol/hr/mg protein | activity at 500 µM [2]: 76%

O=C(O)c1ccccc1 [--COOH --H, benzoate]
activity at 500 µM [2]: 106%

Nc1cccc(C(=O)O)c1 [--COOH --NH2]
Induction Activity (3-chlorobenzoate dechlorination activity) [1, 6]: 4 ± 1 nMol/hr/mg protein | activity at 500 µM [2, 7]: 78%

O=C(O)c1cccc(O)c1 [--COOH --OH]
Induction Activity (3-chlorobenzoate dechlorination activity) [1, 6]: 3 ± 4 nMol/hr/mg protein | activity at 500 µM [2, 7]: 91%

O=S(=O)(O)O [Sulfate]
effect on dechlorination of 3CB (dechlorination of 3CB; cells growing on a different medium or resuspended cells): not by cells growing on a different medium or by resuspended cells | effect on dechlorination of 3CB (dechlorination of 3CB; cells growing on one medium): inhibited dechlorination of 3CB

ClC=C(Cl)Cl [TCE, trichloroethylene]
product formation from PCE or TCE ([3]; Only cultures pre-induced with 3-fluorobenzoate): measurable product formation | Mole % recovered, TCE ([3]; induced (+)): 89.2 Mole % | Mole % recovered, cis-DCE ([3]; induced (+)): 10.8 Mole % | Total Cl Removed ([3]; induced (+)): 11.0 μmol/g prot. in 2 h | Mole % recovered, TCE ([3]; non-induced (-)): 100.0 Mole % | Mole % recovered, cis-DCE ([3]; non-induced (-)): 0.0 Mole % | Total Cl Removed ([3]; non-induced (-)): 0.0 μmol/g prot. in 2 h | rate of transformation of TCE to DCE ([3]; pre-induced with 3-fluorobenzoate): 11 mol g protein ^-1 in 2h

O=S(O)(O)=S [Thiosulfate]
effect on dechlorination of 3CB (dechlorination of 3CB; [8]): inhibit dechlorination of 3CB

C=O [formaldehyde]
effect on PCE dechlorination [4]: almost totally blocked dechlorination

O=S(O)O [sulfite]
effect on dechlorination of 3CB (dechlorination of 3CB; [8]): inhibit dechlorination of 3CB
